Values quoted from earlier work in patent publication EP1069913B1, “GELLING OPHTHALMIC COMPOSITIONS CONTAINING XANTHAN GUM” (Alcon Laboratories, Inc., priority 1998, dated 1999).

Settings: Maleate: second pKa; Boric Acid: in presence of 3.75 to 4.4 wt.% mannitol

Row | Compound | pKa
1 | OB(O)O [Boric Acid] | 5.7-5.85
2 | O=C(O)/C=C\C(=O)O [Maleate] | 6.33
3 | CC(C)(C)NC[C@H](O)COc1nsnc1N1CCOCC1 [Timolol, reference compound] | 9.21
